Source: patent US8828929B2 (priority 2008, dated 2014)
Where no end group is shown, it is not given here.

What was measured:
HLA-A*0201 [1] = biological target: T1, HLA-A*0201 (Homo sapiens, UniProt P04439, /I218V/L300P/L318F/N151K/N90K/P208A/P217A/Q86G/Q94H/R138H/R169H/T345S); experiment: cell-based; format: binding
T1 construct: endogenous in cells; host or cells: T2 cells (human lymphoid, TAP-deficient)

HLA-A*0201 [2] = biological target: T2, HLA-A*0201 (Homo sapiens, UniProt P04439, D140Y/D185E/D98H/E176V/E277Q/G131W/G231S/I119V/I121R/I166T/I218V/L300P/L318F/N151K/N90K/P208A/P217A/Q86G/Q94H/R138H/R169H/T345S); experiment: cell-based; format: binding
T2 construct: endogenous in cells; host or cells: T2 cells (human lymphoid, TAP-deficient)

[3] = tested on: peptide-specific CTLs (IFN-γ-positive cells among CD8-positive cells); design: species or system HLA-A2 transgenic mouse; details: mouse, in vivo; for ICS (% in CD8+ cells): iv
[4] = tested on: peptide-specific CTLs (IFN-γ-positive cells among CD8-positive cells); design: species or system HLA-A2 transgenic mouse; details: mouse, in vivo
[5] = tested on: target cells pulsed with the peptide; design: species or system HLA-A2 transgenic mouse; details: mouse, in vivo

Molecule: ALSGVFCGV [pp1a-2990]
- Affinity (HLA-A*0201 [1]): High (key: High: less than 100 μM; Medium: 100 to 200 μM; Low: more than 200 μM)
- EC50 (HLA-A*0201 [2]): 6.2 µM
- induction of IFN-γ-positive cells among CD8-positive cells [3]: significantly induced IFN-γ-positive cells among CD8-positive cells
- ICS (% in CD8+ cells) [3]: *0.16%
- CTL induction activity [4]: higher than that of the CTL epitope peptide of the Spike protein
- CTL response activity [5]: high CTL response activities
- peptide-specific lysis rates (%) of the target cells by CTLs [5]: 73.4%

Molecule: VLLSVLQQL [pp1a-3848]
- Affinity (HLA-A*0201 [1]): Medium (key: High: less than 100 μM; Medium: 100 to 200 μM; Low: more than 200 μM)
- EC50 (HLA-A*0201 [2]): 102 µM
- ICS (% in CD8+ cells) [3]: 0.07%

Molecule: CC[C@H](C)[C@H](NC(=O)[C@@H](NC(=O)[C@H](CC(N)=O)NC(=O)[C@H](CCSC)NC(=O)[C@H](CC(C)C)NC(=O)[C@@H](N)[C@@H](C)O)C(C)C)C(=O)N[C@H](C(=O)N[C@@H](CC(C)C)C(=O)N[C@H](C(=O)O)C(C)C)[C@@H](C)O [pp1a-3687]
- Affinity (HLA-A*0201 [1]): High (key: High: less than 100 μM; Medium: 100 to 200 μM; Low: more than 200 μM)
- induction of IFN-γ-positive cells among CD8-positive cells [3]: significantly induced IFN-γ-positive cells among CD8-positive cells
- ICS (% in CD8+ cells) [3]: *0.20%
- CTL induction activity [4]: higher than that of the CTL epitope peptide of the Spike protein

Molecule: CC(C)C[C@H](NC(=O)[C@H](Cc1c[nH]c2ccccc12)NC(=O)[C@H](C)NC(=O)[C@H](CC(C)C)NC(=O)[C@@H](N)C(C)C)C(=O)N[C@@H](Cc1ccc(O)cc1)C(=O)N[C@@H](C)C(=O)N[C@@H](C)C(=O)N[C@H](C(=O)O)C(C)C [pp1a-3444]
- Affinity (HLA-A*0201 [1]): High (key: High: less than 100 μM; Medium: 100 to 200 μM; Low: more than 200 μM)
- induction of IFN-γ-positive cells among CD8-positive cells [3]: significantly induced IFN-γ-positive cells among CD8-positive cells
- ICS (% in CD8+ cells) [3]: *0.12%

Molecule: CC(C)C[C@H](NC(=O)[C@@H](NC(=O)[C@@H](NC(=O)[C@@H](NC(=O)[C@H](Cc1ccccc1)NC(=O)[C@H](CCCNC(=N)N)NC(=O)[C@H](CC(N)=O)NC(=O)[C@H](CC(C)C)NC(=O)[C@@H](N)Cc1ccccc1)[C@@H](C)O)[C@@H](C)O)[C@@H](C)O)C(=O)O [pp1a-3459]
- Affinity (HLA-A*0201 [1]): High (key: High: less than 100 μM; Medium: 100 to 200 μM; Low: more than 200 μM)
- ICS (% in CD8+ cells) [3]: 0.03%

Molecule: CC[C@H](C)[C@H](NC(=O)[C@H](CC(C)C)NC(=O)[C@H](CC(C)C)NC(=O)[C@H](CO)NC(=O)[C@@H](NC(=O)[C@H](CC(C)C)NC(=O)[C@@H](N)Cc1ccccc1)[C@@H](C)O)C(=O)N[C@@H](CC(C)C)C(=O)N[C@H](C(=O)O)C(C)C [pp1a-3564]
- Affinity (HLA-A*0201 [1]): Medium (key: High: less than 100 μM; Medium: 100 to 200 μM; Low: more than 200 μM)
- ICS (% in CD8+ cells) [3]: 0.06%

Molecule: VLGSLAATV [pp1a-4219]
- Affinity (HLA-A*0201 [1]): High (key: High: less than 100 μM; Medium: 100 to 200 μM; Low: more than 200 μM)
- EC50 (HLA-A*0201 [2]): 53.3 µM
- ICS (% in CD8+ cells) [3]: 0.01%

Molecule: CC[C@H](C)[C@H](NC(=O)[C@H](CC(=O)O)NC(=O)[C@H](Cc1ccccc1)NC(=O)[C@@H](NC(=O)CNC(=O)[C@@H](NC(=O)[C@@H](NC(=O)[C@H](CC(C)C)NC(=O)[C@@H](N)Cc1ccccc1)[C@@H](C)CC)[C@@H](C)O)C(C)C)C(=O)O [pp1a-651]
- Affinity (HLA-A*0201 [1]): High (key: High: less than 100 μM; Medium: 100 to 200 μM; Low: more than 200 μM)
- ICS (% in CD8+ cells) [3]: 0.02%

Molecule: CC[C@H](C)[C@H](NC(=O)[C@H](CO)NC(=O)[C@H](CC(C)C)NC(=O)[C@H](CC(C)C)NC(=O)[C@H](CC(C)C)NC(=O)[C@H](CC(C)C)NC(=O)[C@H](Cc1c[nH]c2ccccc12)NC(=O)[C@H](CCSC)NC(=O)[C@H](C)N)C(=O)O [pp1a-2207]
- induction of IFN-γ-positive cells among CD8-positive cells [3]: significantly induced IFN-γ-positive cells among CD8-positive cells
- ICS (% in CD8+ cells) [3]: *0.48%
- CTL induction activity [4]: higher than that of the CTL epitope peptide of the Spike protein

Molecule: CC[C@H](C)[C@H](NC(=O)[C@@H](NC(=O)[C@H](CC(C)C)NC(=O)[C@H](C)NC(=O)[C@H](Cc1c[nH]c2ccccc12)NC(=O)[C@H](CCSC)NC(=O)[C@@H](N)CO)C(C)C)C(=O)N[C@@H](CO)C(=O)N[C@H](C(=O)O)C(C)C [pp1a-3709]
- Affinity (HLA-A*0201 [1]): High (key: High: less than 100 μM; Medium: 100 to 200 μM; Low: more than 200 μM)
- induction of IFN-γ-positive cells among CD8-positive cells [3]: significantly induced IFN-γ-positive cells among CD8-positive cells
- ICS (% in CD8+ cells) [3]: *0.50%
- CTL induction activity [4]: higher than that of the CTL epitope peptide of the Spike protein
- CTL response activity [5]: especially high CTL response activity
- peptide-specific lysis rates (%) of the target cells by CTLs [5]: 96.3%

Molecule: QLSLPVLQV [pp1a-15]
- Affinity (HLA-A*0201 [1]): High (key: High: less than 100 μM; Medium: 100 to 200 μM; Low: more than 200 μM)
- EC50 (HLA-A*0201 [2]): 75.7 µM
- ICS (% in CD8+ cells) [3]: 0.05%

Molecule: KLNIKLLGI [pp1a-3816]
- Affinity (HLA-A*0201 [1]): High (key: High: less than 100 μM; Medium: 100 to 200 μM; Low: more than 200 μM)
- EC50 (HLA-A*0201 [2]): 68.1 µM
- ICS (% in CD8+ cells) [3]: 0.07%

Molecule: KLSAGVEFL [pp1a-634]
- Affinity (HLA-A*0201 [1]): High (key: High: less than 100 μM; Medium: 100 to 200 μM; Low: more than 200 μM)
- EC50 (HLA-A*0201 [2]): 59.8 µM
- ICS (% in CD8+ cells) [3]: 0.08%

Molecule: MLSRALKKV [pp1a-1288]
- Affinity (HLA-A*0201 [1]): High (key: High: less than 100 μM; Medium: 100 to 200 μM; Low: more than 200 μM)
- EC50 (HLA-A*0201 [2]): 65.1 µM
- ICS (% in CD8+ cells) [3]: 0.05%

Molecule: SLQVCVQTV [pp1a-1139]
- Affinity (HLA-A*0201 [1]): High (key: High: less than 100 μM; Medium: 100 to 200 μM; Low: more than 200 μM)
- EC50 (HLA-A*0201 [2]): 4.9 µM
- ICS (% in CD8+ cells) [3]: 0.07%

Molecule: TLGVLVPHV [pp1a-103]
- Affinity (HLA-A*0201 [1]): High (key: High: less than 100 μM; Medium: 100 to 200 μM; Low: more than 200 μM)
- EC50 (HLA-A*0201 [2]): 3.1 µM
- ICS (% in CD8+ cells) [3]: 0.07%

Molecule: ILLLDQVLV [pp1a-2546]
- Affinity (HLA-A*0201 [1]): High (key: High: less than 100 μM; Medium: 100 to 200 μM; Low: more than 200 μM)
- EC50 (HLA-A*0201 [2]): 7.6 µM
- induction of IFN-γ-positive cells among CD8-positive cells [3]: significantly induced IFN-γ-positive cells among CD8-positive cells
- ICS (% in CD8+ cells) [3]: *0.17%
- CTL induction activity [4]: higher than that of the CTL epitope peptide of the Spike protein

Molecule: FIAGLIAIV [spike-1203, reference compound]
- ratio (%) of IFN-γ-positive cells among CD8-positive cells [4]: 0.29%

Molecule: CC(C)C[C@H](NC(=O)[C@H](C)NC(=O)[C@H](C)NC(=O)[C@H](CC(C)C)NC(=O)[C@@H](NC(=O)[C@H](CS)NC(=O)[C@H](CC(C)C)NC(=O)[C@H](CC(C)C)NC(=O)[C@@H](N)[C@@H](C)O)C(C)C)C(=O)O [pp1a-2754, TLLCVLAAL]
- Affinity (HLA-A*0201 [1]): High (key: High: less than 100 μM; Medium: 100 to 200 μM; Low: more than 200 μM)
- ICS (% in CD8+ cells) [3]: 0.04%

Molecule: MLLTFLTSL [pp1a-3560]
- Affinity (HLA-A*0201 [1]): High (key: High: less than 100 μM; Medium: 100 to 200 μM; Low: more than 200 μM)
- EC50 (HLA-A*0201 [2]): 47.1 µM
- ICS (% in CD8+ cells) [3]: 0.04%

Molecule: LLCVLAALV [pp1a-2755]
- EC50 (HLA-A*0201 [2]): 187 µM
- induction of IFN-γ-positive cells among CD8-positive cells [3]: significantly induced IFN-γ-positive cells among CD8-positive cells
- ICS (% in CD8+ cells) [3]: *0.18%
- CTL induction activity [4]: higher than that of the CTL epitope peptide of the Spike protein
- CTL response activity [5]: high CTL response activities
- peptide-specific lysis rates (%) of the target cells by CTLs [5]: 70.5%

Molecule: YLSSVLLAL [pp1a-1652, YLSSVLLAL]
- Affinity (HLA-A*0201 [1]): High (key: High: less than 100 μM; Medium: 100 to 200 μM; Low: more than 200 μM)
- EC50 (HLA-A*0201 [2]): 6.7 µM
- ICS (% in CD8+ cells) [3]: 0.05%

Molecule: LLFITGNTL [pp1a-3745]
- Affinity (HLA-A*0201 [1]): Medium (key: High: less than 100 μM; Medium: 100 to 200 μM; Low: more than 200 μM)
- EC50 (HLA-A*0201 [2]): 154 µM
- ICS (% in CD8+ cells) [3]: 0.03%

Molecule: CLDAGINYV [pp1a-2187]
- Affinity (HLA-A*0201 [1]): High (key: High: less than 100 μM; Medium: 100 to 200 μM; Low: more than 200 μM)
- EC50 (HLA-A*0201 [2]): 3 µM
- induction of IFN-γ-positive cells among CD8-positive cells [3]: significantly induced IFN-γ-positive cells among CD8-positive cells
- ICS (% in CD8+ cells) [3]: *0.19%
- CTL induction activity [4]: higher than that of the CTL epitope peptide of the Spike protein
- CTL response activity [5]: high CTL response activities
- peptide-specific lysis rates (%) of the target cells by CTLs [5]: 79.2%

Molecule: CC(C)C[C@H](NC(=O)[C@H](CO)NC(=O)[C@@H]1CCCN1C(=O)[C@H](CC(C)C)NC(=O)[C@H](CC(C)C)NC(=O)[C@@H](N)Cc1ccccc1)C(=O)N[C@@H](C)C(=O)N[C@H](C(=O)N[C@H](C(=O)O)C(C)C)[C@@H](C)O [pp1a-3616]
- Affinity (HLA-A*0201 [1]): High (key: High: less than 100 μM; Medium: 100 to 200 μM; Low: more than 200 μM)
- ICS (% in CD8+ cells) [3]: 0.07%

Molecule: CC[C@H](C)[C@H](NC(=O)[C@H](CCC(=O)O)NC(=O)[C@H](CC(C)C)NC(=O)[C@H](CC(C)C)NC(=O)[C@H](CC(=O)O)NC(=O)[C@H](CCC(=O)O)NC(=O)[C@H](CC(N)=O)NC(=O)[C@H](CC(C)C)NC(=O)[C@@H](N)[C@@H](C)O)C(=O)O [pp1a-445]
- Affinity (HLA-A*0201 [1]): High (key: High: less than 100 μM; Medium: 100 to 200 μM; Low: more than 200 μM)
- ICS (% in CD8+ cells) [3]: 0.08%
